Laboratory results published in US8536172B2, “Inhibitors of JNK” (Roche Palo Alto LLC, priority 2009, dated 2013).

Columns and labels:
Human JNK1α1 = Human JNK1α1 (Homo sapiens (Human), UniProt P45983); experiment: JNK assay in vitro: phosphorylation of GST-ATF2 (19-96) with [γ-33P] ATP, JNK1; format: biochemical; settings: 2 nM enzyme, 1 μM ATF2, 6 μM ATP (Km), 30° C. 30 min
Protocol: JNK activity was measured by phosphorylation of GST-ATF2 (19-96) with [γ-^33P] ATP. […] Human JNK2α2 assay contains 1 nM enzyme, 1 μM ATF2, 8 μM ATP with 1 uCi [γ-^33P] ATP. Human JNK1α1 assay contains 2 nM enzyme, 1 μM ATF2, 6 μM ATP with 1 μCi [γ-^33P] ATP. […] ATP. The enzyme assay was carried out in the presence or absence of several compound concentrations. JNK and compound were pre-incubated for 10 min., followed by initiation of the enzymatic reaction by adding ATP and the substrate. The reaction mixture was incubated at 30° C. for 30 min. […] The incorporation of ^33P into ATF2 was quantified on a microplate scintillation counter (Packard Topcount). Compound inhibition potency on JNK was measured by IC50 value generated from ten concentration inhibition curves fitted into the 3-parameter model: % inhibition=Maximum/(1+(IC50/[Inhibitor])^slope). Data were analyzed on Microsoft Excel for parameter estimation.

Human JNK2α2 = Human JNK2α2 (Homo sapiens (Human), UniProt P45984); experiment: JNK assay in vitro: phosphorylation of GST-ATF2 (19-96) with [γ-33P] ATP, JNK2; format: biochemical; settings: 1 nM enzyme, 1 μM ATF2, 8 μM ATP (Km), 30° C. 30 min
Protocol: JNK activity was measured by phosphorylation of GST-ATF2 (19-96) with [γ-^33P] ATP. […] Human JNK2α2 assay contains 1 nM enzyme, 1 μM ATF2, 8 μM ATP with 1 uCi [γ-^33P] ATP. Human JNK1α1 assay contains 2 nM enzyme, 1 μM ATF2, 6 μM ATP with 1 μCi [γ-^33P] ATP. Human JNK3 (Upstate Biotech #14-501M) assay contains 2 nM enzyme, 1 μM ATF2, 4 μM ATP with 1 μCi [γ-^33P] ATP. The enzyme assay was carried out in the presence or absence of several compound concentrations. JNK and compound were pre-incubated for 10 min., followed by initiation of the enzymatic reaction by adding ATP and the substrate. The reaction mixture was incubated at 30° C. for 30 min. At the end of incubation, the reaction was terminated by transferring 25 μl of the reaction mixture to 150 μl of 10% glutathione Sepharose® slurry (Amersham #27-4574-01) containing 135 mM EDTA. The reaction product was captured on the affinity resin, and washed on a filtration plate (Millipore, MABVNOB50) with phosphate buffered saline for six times to remove free radionucleotide. The incorporation of ^33P into ATF2 was quantified on a microplate scintillation counter (Packard Topcount). Compound inhibition potency on JNK was measured by IC50 value generated from ten concentration inhibition curves fitted into the 3-parameter model: % inhibition=Maximum/(1+(IC50/[Inhibitor])^slope). Data were analyzed on Microsoft Excel for parameter estimation.

Human JNK2α2, sequence (P45984 whole entry): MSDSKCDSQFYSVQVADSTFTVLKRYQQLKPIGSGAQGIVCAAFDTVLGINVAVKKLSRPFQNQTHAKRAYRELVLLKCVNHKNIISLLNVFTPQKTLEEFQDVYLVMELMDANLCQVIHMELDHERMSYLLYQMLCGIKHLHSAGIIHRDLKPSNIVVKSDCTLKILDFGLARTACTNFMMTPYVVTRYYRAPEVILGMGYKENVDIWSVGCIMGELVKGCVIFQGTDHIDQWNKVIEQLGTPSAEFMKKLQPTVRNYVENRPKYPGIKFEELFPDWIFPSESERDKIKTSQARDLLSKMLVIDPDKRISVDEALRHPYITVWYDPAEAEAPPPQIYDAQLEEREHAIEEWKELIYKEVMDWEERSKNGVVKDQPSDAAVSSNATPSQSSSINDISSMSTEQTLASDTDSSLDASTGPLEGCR
Human JNK1α1, sequence (P45983 other isoform, or with tags, fused parts or gaps): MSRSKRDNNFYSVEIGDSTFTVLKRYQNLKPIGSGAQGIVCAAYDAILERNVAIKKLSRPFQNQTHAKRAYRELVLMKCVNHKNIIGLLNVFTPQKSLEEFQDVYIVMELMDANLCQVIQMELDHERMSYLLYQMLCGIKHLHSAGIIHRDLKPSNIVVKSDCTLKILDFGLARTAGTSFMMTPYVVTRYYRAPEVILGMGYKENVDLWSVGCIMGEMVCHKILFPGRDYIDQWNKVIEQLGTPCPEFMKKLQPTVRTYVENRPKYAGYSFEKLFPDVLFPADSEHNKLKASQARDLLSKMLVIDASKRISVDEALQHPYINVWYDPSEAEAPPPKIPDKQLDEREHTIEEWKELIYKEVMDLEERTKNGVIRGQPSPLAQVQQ

SMILES	IC50 (Human JNK1α1) [nM]	IC50 (Human JNK2α2) [nM]
CS(=O)(=O)C1CCN(c2cccc3c2ccn3-c2ccnc(N[C@H]3CC[C@H](C(=O)N4CCn5c(nnc5C(F)(F)F)C4)CC3)n2)CC1 [Compound I-51, (4-{4-[4-(4-Methanesulfonyl-piperidin-1-yl)-indol-1-yl]-pyrimidin-2-ylamino}-cyclohexyl)-(3-trifluoromethyl-5,6-dihydro-8H-[1,2,4]triazolo[4,3-a]pyrazin-7-yl)-methanone]	3.6	6.2
N#CCC(=O)N1CCN(c2cccc3c2ccn3-c2ccnc(N[C@H]3CC[C@H](O)CC3)n2)CC1 [Compound I-55, 3-(4-{1-[2-(4-Hydroxy-cyclohexylamino)-pyrimidin-4-yl]-1H-indol-4-yl}-piperazin-1-yl)-3-oxo-propionitrile]	4.4	23.1
CCN1CCN(C(=O)[C@H]2CC[C@H](Nc3nccc(-n4ccc5c(N6CCN(C(=O)CC#N)CC6)cccc54)n3)CC2)CC1 [Compound I-56, 3-[4-(1-{2-[4-(4-Ethyl-piperazine-1-carbonyl)-cyclohexylamino]-pyrimidin-4-yl}-1H-indol-4-yl)-piperazin-1-yl]-3-oxo-propionitrile]	9.2	18.7
N#CCC(=O)N1CCN(c2cccc3c2ccn3-c2ccnc(N[C@H]3CC[C@@H](O)CC3)n2)CC1 [Compound I-57, 3-(4-{1-[2-(4-Hydroxy-cyclohexylamino)-pyrimidin-4-yl]-1H-indol-4-yl}-piperazin-1-yl)-3-oxo-propionitrile]	15.9	88.4
CC(=O)N1CCN(c2cccc3c2c(C(N)=O)cn3-c2ccnc(N[C@H]3CC[C@H](O)CC3)n2)CC1 [Compound I-63, 4-(4-Acetyl-piperazin-1-yl)-1-[2-(4-hydroxy-cyclohexylamino)-pyrimidin-4-yl]-1H-indole-3-carboxylic acid amide]	12.4	25.7
CS(=O)(=O)C1CCN(c2cccc3c2cnn3-c2ccnc(N[C@H]3CC[C@H](O)CC3)n2)CC1 [Compound I-66, 4-{4-[4-(4-Methanesulfonyl-piperidin-1-yl)-indazol-1-yl]-pyrimidin-2-ylamino}-cyclohexanol]	5.8	16.7
